In patent EP0643964A2 (priority 1993, dated 1995):
Values joined by “and” are separate entries in the source; they are usually repeats but may differ in a detail not shown here. Equal entries are not always repeated. Where two headings read alike, the source gives them in different places.

Experiments:
herpes simplex = test: Evolution of recidivant periorificial herpes simplex infection in volunteers; assay type: in vivo, human
Method: Patients were divided into 3 groups: one of the groups (n=4) received acyclovir by oral route and topical applications of the same drug. […] Experiments began with the appearance of the next episode of herpes, just in the moment when vesicles appeared.
All these patients were controlled monthly during the following 4 months. During this time, group A patients presented episodes with a pattern similar to that they had before the experiment was performed. […] The remaining two presented an episode of herpes 2.8 and 3.3 months later.

canine parvovirus (CPV) = assay type: in vivo, dogs; details: for Viral titers (hemagglutination): Treated group (A): 5 ml 2% lidocaine i.v. twice a day 2 days; for Viral titers of enteric homogenates: Treated group (A), titers obtained on Vero cells
Cryptococcus neoformans = test: Cryptococcoses in experimentally infected mice; assay type: in vivo, Swiss mice; details: 0.1 ml 0.2% lidocaine i.p. twice a day
Method: Animals: 5-7 month old female Swiss mice were used. Experimental schedule: mice received by intraperitoneal route 0.5 ml of a suspension of 10⁷ Cryptococcus neoformans grown in Sabureaud medium.
Two animals of each group (experimental and control groups) were sacrificed at 2, 5 and 10 days post-infection and samples of liver, pancreas, brain, spleen, lung, kidney and bowel were obtained for microscopic examination.

[1] = test system: Foot-and-mouth disease virus (FMDV); assay type: in vivo, Swiss mice
[2] = test system: EL4 h-2^b murine T-Lymphoma; test: In vitro cell growth, EL4 seeded petri dishes (Trypan blue count); assay type: cell-based; details: for Cells Alive ± STD: 72 hours
Method: EL4 h-2^b murine T-Lymphoma (2x10⁶ cells) and P815 H-2^d mastocytoma cells (2x10⁶ cells) (kindly provided by Prof. Gideon Berke at the Weizmann Institute of Sciences, Rehovot, Israel) suspended in 2 ml RPMI-HEPES supplemented with […] and 10% fetal calf serum (FCS) were seeded in every one of 10 petri dishes for each of five groups for the EL4 cells and two groups for the P815 cells. […] Group E dishes were co-cultivated with 0.1 ml RPMI-HEPES alone.
Petri dishes were incubated for 72 hours at 37°C in 5% CO₂ atmosphere. The cells harvested from the petri dishes were then centrifuged, diluted with 1% Trypan blue and counted on a Neubauer chamber.

HIV (RETROVIRUS) = test: Evolution of HIV infected patients (CD4+ counts); assay type: in vivo, human; details: for number of CD4+ cells in blood: individual patients 1-4
From the text: One group experiment consisted in 6 volunteer patients males and females aged between 22 and 35. […] Patient 5 and patient 6, just received saline by same route and frequency as treated patients.
The evolution of the disease in the analyzed patients was done by counting the number of CD4+ cells/mm³ blood and the CD4/CD8 ratio. Blood samples were collected every 15 days.
Treatment of patients started after the fourth sample extraction.

herpes zoster = test: Herpes zoster infection in patients; assay type: in vivo, human
From the text: PATIENT A: who presented a grade II vesical transitional carcinoma that was endoscopically resected. 60 days after resection they presented their first herpetic episode in chest, of 10 days of evolution. 175 days later, a second episode was presented, beginning with hyper and parastesy in the affected area and sudden appearance of vesicles.
PATIENT B: without any apparent disease. 20 and 12 months before they presented two episodes of herpes zoster in the right submammary area, of high intensity, with exquisite pain that made impossible contact with clothes, each episode lasting 3 weeks. At the present time, the patient presented their third episode, preceded by fever (during 48 hours), with crusted vesicles, some of them impetiginized.
PATIENT C: with a breast cancer, under chemo and hormone therapy. After each chemotherapy schedule received, they developed an herpetic episode in the left leg.

[3] = test system: P815 H-^d mastocytoma cells; test: Mastocytoma transplanted BALB/c mice, peritoneal cell count; assay type: in vivo; details: for Cellular count ± STD / I/C: Percentual increment over control growth: Group A
Method: Two groups of BALB/c mice were injected with 15X10⁶ P815 H-^d mastocytoma cells by intraperitoneal route. […] The other group (B) was treated with saline.
On the third day assay and for the next three days, 5 mice per group were sacrificed. The peritoneal cavity was washed with phosphate buffered saline (PBS) and the ascitic fluid aspirated with syringe and centrifuged for 10 minutes at 500 Xg. The supernatant was then discarded and the cells diluted in 1% Trypan blue were counted on a Neubauer chamber. The cell count for each group can be observed in Table 3.

[4] = herpes simplex episode, ACV oral+topical, lidocaine 5 ml 2% i.v. twice a day 2 days
[5] = Mus musculus, 72 h, read-out: I/C: Percentual increment over control growth

CCN(CC)CC(=O)Nc1c(C)cccc1C [lidocaine]
Pain (herpes simplex; Group B, by 48 hours after treatment was begun): no pain existed | Vesicle evolution (herpes simplex; Group B, lidocaine i.v. at appearance of vesicles): Neither rupture of vesicles nor crust formation was found | Duration of lesions (herpes simplex; [4]): 4.5 days | Duration of symptoms (herpes simplex; [4]): 2 days | FIRST EPISODE AFTER TREATMENT (herpes simplex; individual patients, followed monthly for 4 months): 84 days and 94 days | patients who did not present another episode of the disease (herpes simplex; patients who received lidocaine (groups B and C), 4 months follow-up): 4 of 6 | time to next episode of herpes (herpes simplex; the remaining two lidocaine patients): 2.8 months and 3.3 months | Mortality (canine parvovirus (CPV); CPV infected dogs, group A (treated), all controls died by 60 hours): no mortality | Viral titers (hemagglutination) (canine parvovirus (CPV); 12 hrs. after first signs): 0 inverse of the last dilution which agglutinated sheep red cells | Viral titers (hemagglutination) (canine parvovirus (CPV); 24 hrs.): 16 inverse of the last dilution which agglutinated sheep red cells | Viral titers (hemagglutination) (canine parvovirus (CPV); 36 hrs.): 320 inverse of the last dilution which agglutinated sheep red cells | Viral titers (hemagglutination) (canine parvovirus (CPV); 48 hrs.): 320 inverse of the last dilution which agglutinated sheep red cells | Viral titers (hemagglutination) (canine parvovirus (CPV); 60 hrs.): 160 inverse of the last dilution which agglutinated sheep red cells | Viral titers (hemagglutination) (canine parvovirus (CPV); 72 hrs.): 40 inverse of the last dilution which agglutinated sheep red cells | Viral titers (hemagglutination) (canine parvovirus (CPV); 84 hrs.): 40 inverse of the last dilution which agglutinated sheep red cells | Viral titers (hemagglutination) (canine parvovirus (CPV); 96 hrs.): 40 inverse of the last dilution which agglutinated sheep red cells | Viral titers of enteric homogenates (canine parvovirus (CPV); 12 hrs.): 2.1 x 10^2 TCID₅₀/ml | Viral titers of enteric homogenates (canine parvovirus (CPV); 24 hrs.): 0.1 x 10^4 TCID₅₀/ml | Viral titers of enteric homogenates (canine parvovirus (CPV); 36 hrs.): 0.5 x 10^7 TCID₅₀/ml | Viral titers of enteric homogenates (canine parvovirus (CPV); 48 hrs.): 0.3 x 10^7 TCID₅₀/ml | Viral titers of enteric homogenates (canine parvovirus (CPV); 60 hrs.): 2.3 x 10^5 TCID₅₀/ml | Viral titers of enteric homogenates (canine parvovirus (CPV); 72 hrs.): 6.3 x 10^4 TCID₅₀/ml | Viral titers of enteric homogenates (canine parvovirus (CPV); 84 hrs.): 5.8 x 10^4 TCID₅₀/ml | Viral titers of enteric homogenates (canine parvovirus (CPV); 96 hrs.): 6.0 x 10^4 TCID₅₀/ml | Signs of the disease (canine parvovirus (CPV); group A, after 48 hours from the beginning of treatment): none of the animals showed signs of the disease | Histological aspect of enteric mucosa (canine parvovirus (CPV); group A, by 72 hours post-treatment): normal histological aspect | Microscopic examination of organs (Cryptococcus neoformans; 48 hours post-infection): only a generalized vascular congestion | Microscopic examination of organs (Cryptococcus neoformans; 5 days post-infection): discrete mononuclear cell infiltrate in liver parenchyma and swelling of pancreatic tissue, with absence of inflammatory cells | Microscopic examination of organs (Cryptococcus neoformans; day 10 pi): scarce granulomas in hepatic parenchyma | PRESENCE OF PMNs ([1]; 0.1 ml 0.1% i.p., 8am and 8pm day 1 (group E)): 80-90% | PRESENCE OF PMNs ([1]; 0.1 ml 0.1% i.p., 8am and 8pm on day 1 and day 2 (group F)): 10% | PRESENCE OF PMNs ([1]; 0.1 ml 0.2% i.p., 8am and 8pm day 1 (group C)): 30-40% | PRESENCE OF PMNs ([1]; 0.1 ml 0.2% i.p., 8am day 1 only (group B)): 60-70% | PRESENCE OF PMNs ([1]; 0.1 ml 0.2% i.p., 8am, 8pm day 1 and 8am day 2 (group D)): 30% | PRESENCE OF PMNs ([1]; 0.1 ml 0.4% i.p., 8am day 1 only (group A)): 10% | PRESENCE OF PMNs ([1]; 0.1 ml 0.8% lidocaine i.m. twice a day, 24 hours before FMDV infection): 10% | PRESENCE OF PMNs ([1]; 0.1 ml lidocaine 0.2% i.m. twice a day 2 days (group C)): 80-90% | PRESENCE OF PMNs ([1]; 0.1 ml lidocaine 0.4% i.m. twice a day 2 days (group B)): 60-70% | PRESENCE OF PMNs ([1]; 0.1 ml lidocaine 0.8% i.m. twice a day 2 days (group A)): 30-50% | Microscopic examination of the pancreas ([1]; groups A (lidocaine endovenous 24 h after FMDV) and C (simultaneous), 48 hours post-infection): minimal inflammatory damage with absence of necrosis | Microscopic examination of the pancreas ([1]; groups A and C, 72 hours post-infection): no pancreatic damage could be found | PRESENCE OF PMNs ([1]; lidocaine concentration 0.1%, i.m. twice a day 2 days): 50-60% | PRESENCE OF PMNs ([1]; lidocaine concentration 0.2%, i.m. twice a day 2 days): 20-30% | PRESENCE OF PMNs ([1]; lidocaine concentration 0.3%, i.m. twice a day 2 days): 10-20% | PRESENCE OF PMNs ([1]; lidocaine concentration 0.4%, i.m. twice a day 2 days): 10-20% | PRESENCE OF PMNs ([1]; lidocaine concentration 0.5%, i.m. twice a day 2 days): 10-20% | PRESENCE OF PMNs ([1]; oral route, 0.1 ml of 2% solution twice a day 2 days): 50-100% | PRESENCE OF PMNs ([1]; oral route, 0.2 ml of 2% solution twice a day 2 days): 30-60% | PRESENCE OF PMNs ([1]; oral route, 0.3 ml of 2% solution twice a day 2 days): 30-60% | PRESENCE OF PMNs ([1]; oral route, 0.4 ml of 2% solution twice a day 2 days): 50% | PRESENCE OF PMNs ([1]; oral route, 0.5 ml. of 2% solution twice a day 2 days): 20-30% | Cells Alive ± STD ([2]; Group A, 0.1 ml 2% lidocaine in 2 ml, 2 millions seeded, control 5.92E+06): 5.16E+06 ± 0.04 millions of cells | Dead cells ([2]; Group A, 2% lidocaine, control 2.08E+06): 2.78E+06 | Cells Alive ± STD ([2]; Group B, 0.1 ml 0.5% lidocaine): 5.90E+06 ± 0.03 millions of cells | Dead cells ([2]; Group B, 0.5% lidocaine): 1.64E+06 | Dead cells ([2]; Group C, 0.05% lidocaine): 1.52E+06 | Cells Alive ± STD ([2]; Group C, 0.1 ml 0.05% lidocaine): 5.46E+06 ± 0.01 millions of cells | Dead cells ([2]; Group D, 0.005% lidocaine): 1.12E+06 | Cells Alive ± STD ([2]; Group D, 0.1 ml 0.005% lidocaine): 3.48E+06 ± 0.02 millions of cells | inhibition at 0.005 % [2, 5]: 41.2% | inhibition at 0.05 % [2, 5]: 7.77% | inhibition at 0.5 % [2, 5]: 0.34% | inhibition at 2 % [2, 5]: 12.8% | cytotoxicity at 2 % ([2]; Mus musculus, EL4, 72 h, read-out: amount of dead cells): 35% | amount of dead cells ([2]; groups B to E (0.5%, 0.05%, 0.005% lidocaine and control), 4320 min): 20-25% | CD4 counting (HIV (RETROVIRUS); all the treated patients, controls decreased): increase or no decrease | number of CD4+ cells in blood (HIV (RETROVIRUS); sample 1 (every 2 weeks), before treatment): 480 cells/mm³ and 294 cells/mm³ and 230 cells/mm³ and 500 cells/mm³ | number of CD4+ cells in blood (HIV (RETROVIRUS); sample 2, before treatment): 475 cells/mm³ and 294 cells/mm³ and 238 cells/mm³ and 496 cells/mm³ | number of CD4+ cells in blood (HIV (RETROVIRUS); sample 3, before treatment): 475 cells/mm³ and 280 cells/mm³ and 235 cells/mm³ and 496 cells/mm³ | number of CD4+ cells in blood (HIV (RETROVIRUS); sample 4, last before treatment): 480 cells/mm³ and 270 cells/mm³ and 234 cells/mm³ and 485 cells/mm³ | Evolution of herpetic lesions (herpes zoster; PATIENT C, breast cancer under chemo and hormone therapy): residual hyperesthesia persisted | time to healing (crusts detached / all vesicles healed) (herpes zoster; individual patients (A, B)): ≤ 7 day post-treatment and 10 day post-treatment | time to disappearance of pain (herpes zoster; individual patients (A, B), i.v. twice a day 2 days): ≤ 5 days and 5 days | Cellular count ± STD ([3]; 0.1 ml 0.5% lidocaine 24 h after transplant, 48 Hs p-t, control 5.30E+07): 2.85E+07 ± 0.78 millions of cells | I/C: Percentual increment over control growth ([3]; 48 Hs p-t): -46.18% | I/C: Percentual increment over control growth ([3]; 72 Hs p-t): -37.11% | Cellular count ± STD ([3]; 72 Hs p-t, control 1.59E+08): 1.00E+08 ± 3.38 millions of cells | I/C: Percentual increment over control growth ([3]; 96 Hs p-t): 27.15% | reduction in the growth rate ([3]; first 24 hours of lidocaine treatment, decreasing 10% per day afterwards): ~50%
